Assay results reported in US7078404B2, “Acyl-3-carboxyphenylurea derivatives, processes for preparing them and their use” (Sanofi-Aventis Deutschland GmbH, priority 2002, dated 2006).

Target: T1, Human glycogen phosphorylase a (Homo sapiens, UniProt P06737)
T1 sequence (P06737 1-847): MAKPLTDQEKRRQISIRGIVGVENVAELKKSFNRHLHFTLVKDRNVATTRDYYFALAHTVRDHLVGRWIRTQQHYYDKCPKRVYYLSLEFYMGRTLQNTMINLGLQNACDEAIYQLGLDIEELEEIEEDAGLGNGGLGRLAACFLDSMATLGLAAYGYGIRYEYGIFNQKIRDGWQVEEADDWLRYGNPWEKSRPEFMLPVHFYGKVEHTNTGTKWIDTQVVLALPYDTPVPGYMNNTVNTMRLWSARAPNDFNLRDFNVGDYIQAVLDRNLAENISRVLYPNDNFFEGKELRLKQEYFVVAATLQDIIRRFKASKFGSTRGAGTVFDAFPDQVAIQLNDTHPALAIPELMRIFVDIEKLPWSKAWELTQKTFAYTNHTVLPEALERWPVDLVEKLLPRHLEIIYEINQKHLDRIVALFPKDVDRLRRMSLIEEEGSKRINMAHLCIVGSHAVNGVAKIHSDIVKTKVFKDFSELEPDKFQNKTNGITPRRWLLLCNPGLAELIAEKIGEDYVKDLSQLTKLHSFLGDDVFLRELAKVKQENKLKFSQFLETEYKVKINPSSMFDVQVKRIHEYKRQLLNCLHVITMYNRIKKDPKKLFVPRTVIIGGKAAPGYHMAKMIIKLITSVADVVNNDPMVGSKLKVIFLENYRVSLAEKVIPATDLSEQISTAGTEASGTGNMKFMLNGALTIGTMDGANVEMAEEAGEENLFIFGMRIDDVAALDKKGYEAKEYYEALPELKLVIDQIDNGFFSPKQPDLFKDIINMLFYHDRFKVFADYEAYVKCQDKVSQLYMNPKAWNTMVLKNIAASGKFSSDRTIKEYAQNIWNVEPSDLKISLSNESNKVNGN
Test: Glycogen phosphorylase a activity test
Type: biochemical
Conditions: 10 μM concentration of the test substance; GPa measured in the reverse direction, in vitro
Protocol: Glycogen Phosphorylase a Activity Test
The effect of compounds on the activity of the active form of glycogen phosphorylase (GPa) was measured in the reverse direction by monitoring the synthesis of glycogen from glucose 1-phosphate by determining the release of inorganic phosphate. All the reactions were carried out as duplicate determinations in 96-well microtiter plates (Half Area Plates, Costar No. 3696), with the change in absorption due to the formation of the reaction product being measured, at the wavelength specified below, in a Multiscan Ascent Elisa Reader (Lab Systems, Finland). In order to measure the enzymic activity of GPa in the reverse direction, the conversion of glucose 1-phosphate into glycogen and inorganic phosphate was measured in accordance with the general method of Engers et al. (Engers HD, Shechosky S, Madsen NB, Can J Biochem 1970 July;48(7): 746–754) but with the following modifications: Human glycogen phosphorylase a (for example containing 0.76 mg of protein/ml (Aventis Pharma Deutschland GmbH), dissolved in buffer solution E (25 mM β-glycerophosphate, pH 7.0, 1 mM EDTA and 1 mM dithiothreitol), was diluted with buffer T (50 mM Hepes, pH 7.0, 100 mM KCl, 2.5 mM EDTA, 2.5 mM MgCl2.6H2O), and addition of 5 mg of glycogen/ml, to a concentration of 10 μg of protein/ml. Test substances were prepared as a 10 mM solution in DMSO and diluted down to 50 μM with buffer solution T. 10 μl of 37.5 mM glucose, dissolved in buffer solution T and 5 mg/ml of glycogen, and also 10 μl of a solution of human glycogen phosphorylase a (10 μg of protein/ml) and 20 μl of glucose 1-phosphate, 2.5 mM, were added to […] of the solution. The basal value of the activity of the glycogen phosphorylase a in the absence of test substance was determined by adding 10 μl of buffer solution T (0.1% DMSO). The mixture was incubated at room temperature for 40 minutes and the inorganic phosphate which was released was measured using the general method of Drueckes et al. (Drueckes P, Schinzel R, Palm D, Anal Biochem […] Sep. 1;230(10):173–177) but with the following modifications: 50 μl of a stop solution of 7.3 mM ammonium molybdate, 10.9 mM zinc acetate, 3.6% ascorbic acid, 0.9% SDS are added to 50 μl of the enzyme mixture. After 60 minutes of incubation at 45° C., the absorption was measured at 820 nm. In order to determine the background absorption, the stop solution was added immediately after adding the glucose 1-phosphate solution in a separate assay. This test was carried out using a 10 μM concentration of the test substance in order to determine the respective inhibition of glycogen phosphorylase a by the test substance in vitro.

## COc1ccc(C(=O)O)cc1NC(=O)NC(=O)c1ccc(Cl)cc1Cl [Example 1, 3-[3-(2,4-Dichlorobenzoyl)ureido]-4-methoxybenzoic acid]
  inhibition at 10 µM: 95%

## COc1ccc(C(=O)O)cc1NC(=O)NC(=O)c1ccccc1Cl [Example 2]
  % inhibition at 10 μM: 75%

## O=C(NC(=O)c1ccc(Cl)cc1Cl)Nc1cc(C(=O)O)ccc1O [Example 3]
  % inhibition at 10 μM: 74%

## O=C(NC(=O)c1ccc(Cl)cc1Cl)Nc1cc(C(=O)O)ccc1F [Example 4]
  % inhibition at 10 μM: 75%

## O=C(NC(=O)c1cc(Cl)ccc1Cl)Nc1cc(C(=O)O)ccc1Cl [Example 6]
  % inhibition at 10 μM: 57%

## NC(CO)(CO)CO.O=C(NC(=O)c1cc(Cl)ccc1Cl)Nc1cc(C(=O)O)ccc1Cl [Example 7]
  % inhibition at 10 μM: 54%

## COc1ccc(C(=O)O)cc1NC(=O)NC(=O)c1ccccc1C [Example 8]
  % inhibition at 10 μM: 77%

## COc1ccc(C(=O)O)cc1NC(=O)NC(=O)c1cc(Cl)ccc1Cl [Example 9]
  % inhibition at 10 μM: 81%

## COc1ccc(C(=O)O)cc1NC(=O)NC(=O)c1ccc(Cl)c(Cl)c1 [Example 10]
  % inhibition at 10 μM: 41%

## O=C(NC(=O)c1ccccc1Cl)Nc1cc(C(=O)O)ccc1Cl [Example 11]
  % inhibition at 10 μM: 49%

## O=C(NC(=O)c1ccc(Cl)cc1Cl)Nc1cc(C(=O)O)ccc1Cl [Example 12]
  % inhibition at 10 μM: 83%

## CCOc1ccc(C(=O)O)cc1NC(=O)NC(=O)c1ccc(Cl)cc1Cl [Example 13]
  % inhibition at 10 μM: 86%

## COc1ccc(C(=O)O)cc1NC(=O)NC(=O)c1ccc(C)cc1C [Example 14]
  % inhibition at 10 μM: 57%

## O=C(NC(=O)c1ccc(Cl)cc1F)Nc1cc(C(=O)O)ccc1Cl [Example 15]
  % inhibition at 10 μM: 61%

## COc1ccc(C(=O)O)cc1NC(=O)NC(=O)c1ccc(Cl)cc1F [Example 16]
  % inhibition at 10 μM: 48%

## O=C(NC(=O)c1ccc(F)cc1F)Nc1cc(C(=O)O)ccc1Cl [Example 17]
  % inhibition at 10 μM: 52%

## COc1ccc(C(=O)O)cc1NC(=O)NC(=O)c1ccc(F)cc1F [Example 18]
  % inhibition at 10 μM: 69%

## O=C(NC(=O)c1ccc(Cl)cc1Cl)Nc1cc(C(=O)O)ccc1OCCO [Example 19]
  % inhibition at 10 μM: 90%

## CCCOc1ccc(C(=O)O)cc1NC(=O)NC(=O)c1ccc(Cl)cc1Cl [Example 20]
  % inhibition at 10 μM: 62%

## CCCCOc1ccc(C(=O)O)cc1NC(=O)NC(=O)c1ccc(Cl)cc1Cl [Example 21]
  % inhibition at 10 μM: 64%

## COCCOc1ccc(C(=O)O)cc1NC(=O)NC(=O)c1ccc(Cl)cc1Cl [Example 22]
  % inhibition at 10 μM: 72%

## O=C(NC(=O)c1ccc(Cl)cc1Cl)Nc1cc(C(=O)O)ccc1Oc1ccccc1 [Example 23]
  % inhibition at 10 μM: 55%

## NC(CO)(CO)CO.O=C(NC(=O)c1ccc(Cl)cc1Cl)Nc1cc(C(=O)O)ccc1Oc1ccccc1 [Example 24]
  % inhibition at 10 μM: 65%

## O=C(NC(=O)c1ccc(F)cc1Cl)Nc1cc(C(=O)O)ccc1C(F)(F)F [Example 25]
  % inhibition at 10 μM: 49%

## O=C(NC(=O)c1ccc(Cl)cc1Cl)Nc1cc(C(=O)O)ccc1C(F)(F)F [Example 26]
  % inhibition at 10 μM: 44%
